# Experimental data from patent EP4624470A1, “YOHIMBINE DERIVATIVE, AND PREPARATION METHOD THEREFOR AND PHARMACEUTICAL COMPOSITION AND USE THEREOF” (Shanghai Institute of Materia Medica, Chinese Academy of …, priority 2022, dated 2024).
# Test system: not listed separately
# Test: Tissue distribution test in mice
# Type: in vivo
# Conditions: gavage 10 mg/kg
# Description: Mice were fasted for more than 12 h and had free access to water. Table 3 Experimental Scheme for tissue distribution of Compound C27 in mice
# Mice were fasted for more than 12 h and had free access to water.
# • (1) Tissue distribution test in mice: The animals in each group were anesthetized and killed 2 h after administration. The brain, pancreas, heart, liver, and kidney tissues were collected by dissection, washed with physiological saline, and stored in a -20 °C refrigerator for testing. At the same time, 0.3 mL of whole blood was collected and placed in an EDTA-K2 anticoagulant tube. The blood was separated by centrifugation at 11,000 rpm for 5 min and stored in a -20 °C refrigerator for testing.
# The concentration of unchanged drug in plasma and tissues was determined.
# (2) Tissue distribution test of compound C27 in mice: At corresponding time points (0.25, 2 and 8 h) after gavage administration, mice were bled to death through the abdominal aorta. Brain, heart, liver, lung, pancreas and kidney tissues were immediately collected by dissection, and part of the plasma was collected. The operation was carried out in an ice water bath.
# Centrifugation conditions: 11000 rpm for 5 min to separate plasma (about 200 µL).
row,Structure (SMILES),pancreatic distribution
1,NC(=O)c1ccc(Cc2noc([C@@H]3[C@H]4C[C@H]5c6[nH]c7ccccc7c6CCN5C[C@@H]4CC[C@@H]3O)n2)cc1 [Compound C27],pancreatic distribution characteristics comparable to those of compound C19

# Same assay, conditions: gavage 10 mg/kg, compared with yohimbine
row,Structure (SMILES),plasma exposure
1,NC(=O)c1ccc(Cc2noc([C@@H]3[C@H]4C[C@H]5c6[nH]c7ccccc7c6CCN5C[C@@H]4CC[C@@H]3O)n2)cc1 [Compound C27],equivalent to that of yohimbine

# Same assay, conditions: gavage 10 mg/kg, relative ratio of tissue distribution concentration to blood concentration
Structure (SMILES),brain tissue distribution compared with yohimbine,"brain tissue distribution, times lower than that of yohimbine"
COc1ccc(Cc2noc([C@@H]3[C@H]4C[C@H]5c6[nH]c7ccccc7c6CCN5C[C@@H]4CC[C@@H]3O)n2)cc1 [Compound C6],lower brain tissue distribution than yohimbine,–
NC(=O)c1ccc(Cc2noc([C@@H]3[C@H]4C[C@H]5c6[nH]c7ccccc7c6CCN5C[C@@H]4CC[C@@H]3O)n2)cc1 [Compound C27],lower brain tissue distribution than yohimbine,about two hundred and seventy times lower
O[C@H]1CC[C@H]2CN3CCc4c([nH]c5ccccc45)[C@@H]3C[C@@H]2[C@H]1c1nc(Cc2ccc(Cl)c(Cl)c2)no1 [Compound C13],lower brain tissue distribution than yohimbine,–
O[C@H]1CC[C@H]2CN3CCc4c([nH]c5ccccc45)[C@@H]3C[C@@H]2[C@H]1c1nc(Cc2ccccc2)no1 [Compound C1],lower brain tissue distribution than yohimbine,–

# Target: T1, α2A-AR (Homo sapiens, UniProt P08913)
# T1 construct: expressed in transfected cells; stably expressing α2A-AR/Gα16
# T1 sequence (P08913 1-465): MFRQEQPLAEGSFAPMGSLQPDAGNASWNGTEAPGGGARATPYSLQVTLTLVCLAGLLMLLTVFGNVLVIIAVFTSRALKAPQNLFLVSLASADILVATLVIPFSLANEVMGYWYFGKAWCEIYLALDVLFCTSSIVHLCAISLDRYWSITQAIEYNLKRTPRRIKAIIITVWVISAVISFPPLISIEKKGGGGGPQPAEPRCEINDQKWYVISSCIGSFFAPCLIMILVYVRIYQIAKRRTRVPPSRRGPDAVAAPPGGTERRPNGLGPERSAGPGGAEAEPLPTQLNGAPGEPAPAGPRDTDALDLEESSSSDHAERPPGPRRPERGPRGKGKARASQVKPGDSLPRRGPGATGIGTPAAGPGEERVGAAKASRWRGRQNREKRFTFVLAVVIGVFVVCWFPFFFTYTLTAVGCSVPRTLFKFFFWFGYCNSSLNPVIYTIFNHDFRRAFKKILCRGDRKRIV
# Test: α2A-AR antagonist assay (calcium flux, Fluo-4, FlexStation II)
# Type: cell-based
# Conditions: antagonistic activity against agonist UK14304 in cells stably expressing α2A-AR/Ga16
# Excerpt: By establishing a cell line co-transfected with the target receptor and Ga16, the receptor can be activated to cause the activation of Gα16 protein, which in turn activates phospholipase C (PLC) to produce IP3 and DAG. IP3 can bind to the IP3 receptors on the endoplasmic reticulum and mitochondria in the cell, thereby causing the release of intracellular calcium. Therefore, measuring the changes in intracellular calcium can be used as a method to detect the activation state of the target receptor. Fluo-4/AM is a calcium fluorescent probe indicator used to measure calcium ions. As a non-polar lipid-soluble compound, after entering the cell, the AM group dissociates under the action of cell lipases and releases Fluo-4; since Fluo-4 is a polar molecule that is not easy to pass through the lipid bilayer membrane, it can keep in the cell for a long time. Finally, the level of Ga protein activation can be reflected by measuring the excited fluorescence intensity.
# Before the test, the test compound was dissolved in DMSO to prepare a stock solution, which was diluted with culture medium to the required concentration when used.
row,Structure (SMILES),IC50 [µM]
1,COCc1noc([C@@H]2[C@H]3C[C@H]4c5[nH]c6ccccc6c5CCN4C[C@@H]3CC[C@@H]2O)n1 [Compound C22],0.1 to 0.3
2,Cc1noc([C@@H]2[C@H]3C[C@H]4c5[nH]c6ccccc6c5CCN4C[C@@H]3CC[C@@H]2O)n1 [Compound C26],0.1 to 0.3
3,O[C@H]1CC[C@H]2CN3CCc4c([nH]c5ccccc45)[C@@H]3C[C@@H]2[C@H]1c1nc(Cc2ccc(Br)cc2)no1 [Compound C16],0.5 to 2
4,O[C@H]1CC[C@H]2CN3CCc4c([nH]c5ccccc45)[C@@H]3C[C@@H]2[C@H]1c1nc(Cc2c(Cl)cccc2Cl)no1 [Compound C12],0.1 to 0.3
5,O[C@H]1CC[C@H]2CN3CCc4c([nH]c5ccccc45)[C@@H]3C[C@@H]2[C@H]1c1nc(CC2CC2)no1 [Compound C21],0.5 to 2
6,O[C@H]1CC[C@H]2CN3CCc4c([nH]c5ccccc45)[C@@H]3C[C@@H]2[C@H]1c1nc(Cc2nc3ccccc3o2)no1 [Compound C31],0.3 to 0.5
7,COc1ccc(Cc2noc([C@@H]3[C@H]4C[C@H]5c6[nH]c7ccccc7c6CCN5C[C@@H]4CC[C@@H]3O)n2)cc1 [Compound C6],< 0.1
8,O[C@H]1CC[C@H]2CN3CCc4c([nH]c5ccccc45)[C@@H]3C[C@@H]2[C@H]1c1nc(-c2ccncc2)no1 [Compound C24],0.5 to 2
9,N#Cc1ccccc1Cc1noc([C@@H]2[C@H]3C[C@H]4c5[nH]c6ccccc6c5CCN4C[C@@H]3CC[C@@H]2O)n1 [Compound C17],0.1 to 0.3
10,O[C@H]1CC[C@H]2CN3CCc4c([nH]c5ccccc45)[C@@H]3C[C@@H]2[C@H]1c1nc(CN2CCOCC2)no1 [Compound C20],0.1 to 0.3
11,CC(c1ccccc1)c1noc([C@@H]2[C@H]3C[C@H]4c5[nH]c6ccccc6c5CCN4C[C@@H]3CC[C@@H]2O)n1 (some centres unmarked) [Compound C2],0.3 to 0.5
12,O[C@H]1CC[C@H]2CN3CCc4c([nH]c5ccccc45)[C@@H]3C[C@@H]2[C@H]1c1nc(Cc2cccc(F)c2)no1 [Compound C8],0.3 to 0.5
13,O[C@H]1CC[C@H]2CN3CCc4c([nH]c5ccccc45)[C@@H]3C[C@@H]2[C@H]1c1nc(-c2ccccc2)no1 [Compound C23],0.3 to 0.5
14,O[C@H]1CC[C@H]2CN3CCc4c([nH]c5ccccc45)[C@@H]3C[C@@H]2[C@H]1c1nc(CCc2ccccc2)no1 [Compound C3],0.1 to 0.3
15,NC(=O)c1ccc(Cc2noc([C@@H]3[C@H]4C[C@H]5c6[nH]c7ccccc7c6CCN5C[C@@H]4CC[C@@H]3O)n2)cc1 [Compound C27],< 0.1
16,O[C@H]1CC[C@H]2CN3CCc4c([nH]c5ccccc45)[C@@H]3C[C@@H]2[C@H]1c1nc(C2CCCCC2)no1 [Compound C25],0.3 to 0.5
17,O[C@H]1CC[C@H]2CN3CCc4c([nH]c5ccccc45)[C@@H]3C[C@@H]2[C@H]1c1nc(Cc2ccc(Cl)c(Cl)c2)no1 [Compound C13],0.5 to 2
18,O[C@H]1CC[C@H]2CN3CCc4c([nH]c5ccccc45)[C@@H]3C[C@@H]2[C@H]1c1nc(Cc2ccccc2)no1 [Compound C1],< 0.1

# The remaining lines, values ahead:
row,IC50 [µM],Structure (SMILES)
1,0.5 to 2,O[C@H]1CC[C@H]2CN3CCc4c([nH]c5ccccc45)[C@@H]3C[C@@H]2[C@H]1c1nc(Cc2cccc(Cl)c2)no1 [Compound C11]
2,0.5 to 2,COc1ccccc1Cc1noc([C@@H]2[C@H]3C[C@H]4c5[nH]c6ccccc6c5CCN4C[C@@H]3CC[C@@H]2O)n1 [Compound C4]
3,0.1 to 0.3,COC(=O)c1ccc(Cc2noc([C@@H]3[C@H]4C[C@H]5c6[nH]c7ccccc7c6CCN5C[C@@H]4CC[C@@H]3O)n2)cc1 [Compound C29]
4,0.5 to 2,O[C@H]1CC[C@H]2CN3CCc4c([nH]c5ccccc45)[C@@H]3C[C@@H]2[C@H]1c1nc(Cc2ccccc2F)no1 [Compound C7]
5,0.3 to 0.5,O=C(O)c1ccc(Cc2noc([C@@H]3[C@H]4C[C@H]5c6[nH]c7ccccc7c6CCN5C[C@@H]4CC[C@@H]3O)n2)cc1 [Compound C30]
6,0.5 to 2,O[C@H]1CC[C@H]2CN3CCc4c([nH]c5ccccc45)[C@@H]3C[C@@H]2[C@H]1c1nc(Cc2ccccc2Cl)no1 [Compound C10]
7,< 0.1,O[C@H]1CC[C@H]2CN3CCc4c([nH]c5ccccc45)[C@@H]3C[C@@H]2[C@H]1c1nc(Cc2ccccc2Br)no1 [Compound C14]
8,< 0.1,N#Cc1cccc(Cc2noc([C@@H]3[C@H]4C[C@H]5c6[nH]c7ccccc7c6CCN5C[C@@H]4CC[C@@H]3O)n2)c1 [Compound C18]
9,< 0.1,O[C@H]1CC[C@H]2CN3CCc4c([nH]c5ccccc45)[C@@H]3C[C@@H]2[C@H]1c1nc(Cc2cccc(OC(F)(F)F)c2)no1 [Compound C32]
10,0.1 to 0.3,O[C@H]1CC[C@H]2CN3CCc4c([nH]c5ccccc45)[C@@H]3C[C@@H]2[C@H]1c1nc(Cc2cccc(C(F)(F)F)c2)no1 [Compound C33]
11,< 0.1,CN(C)S(=O)(=O)c1ccc(Cc2noc([C@@H]3[C@H]4C[C@H]5c6[nH]c7ccccc7c6CCN5C[C@@H]4CC[C@@H]3O)n2)cc1 [Compound C28]
12,< 0.1,O[C@H]1CC[C@H]2CN3CCc4c([nH]c5ccccc45)[C@@H]3C[C@@H]2[C@H]1c1nc(Cc2cccc(Br)c2)no1 [Compound C15]
13,0.5 to 2,O[C@H]1CC[C@H]2CN3CCc4c([nH]c5ccccc45)[C@@H]3C[C@@H]2[C@H]1c1nc(Cc2ccc(F)cc2)no1 [Compound C9]
14,0.1 to 0.3,CN(C)c1cccc(Cc2noc([C@@H]3[C@H]4C[C@H]5c6[nH]c7ccccc7c6CCN5C[C@@H]4CC[C@@H]3O)n2)c1 [Compound C34]
15,0.1 to 0.3,COc1cccc(Cc2noc([C@@H]3[C@H]4C[C@H]5c6[nH]c7ccccc7c6CCN5C[C@@H]4CC[C@@H]3O)n2)c1 [Compound C5]
16,0.1 to 0.3,CN(C)C(=O)c1ccc(Cc2noc([C@@H]3[C@H]4C[C@H]5c6[nH]c7ccccc7c6CCN5C[C@@H]4CC[C@@H]3O)n2)cc1 [Compound C35]
